Here are results for 8 compounds from patent publication US10668090B2, “Liver specific delivery-based antiviral prodrug nucleoside cyclophosphate compound and uses thereof” (ZHEJIANG PALO ALTO PHARMACEUTICALS, INC, priority 2016, dated 2020).

Data set [1] in a line: Formation of active molecules by in vitro metabolism with human liver microsomes. It counts as in vitro ADME. The conditions noted are these: 25 μM, pH 7.4. On the procedure:
Human liver microsomes used herein were purchased from In Vitro Technologies (IVT) Inc., Batch No.: SSP X008070, a mixed liver microsome extracted from the liver tissues of 150 donors. The metabolic activity of CYP3A4 in the liver microsomes of this batch was recorded in the product description to be 1.734 nmol/mg/min (a rate of metabolizing testosterone into […]). The test compounds were synthesized by Zhejiang Paloalto Pharmaceutical Technology Co., Ltd., and dissolved in methanol to produce a 25 mM stock solution. The enzymatic reaction was carried out in 100 μL of a reaction solution (100 mM Tris-HCl, 5 mM MgCl2, pH 7.4) at a test compound concentration of 25 μM and a human liver microsome concentration of 2 mg/mL, and NADPH was added to start the reaction (with a final concentration of 2 mM). After the reaction was performed in a constant temperature shaking water bath for 5 minutes, acetonitrile was quickly added to terminate the reaction at 1.5 times the volume of the reaction mixture. The collected samples were centrifuged at a maximum speed of 13,600 rpm for 20 minutes using an Eppendorf table top centrifuge. The supernatant was collected and dried with a nitrogen evaporator, and then redissolved with mobile phase A, which was an aqueous solution containing 5 mM of ammonium acetate and 0.05% formic acid by volume. The resulting solution was subjected to quantitative analysis using LS-MS/MS (Waters, Acquity UPLC HSS T3 column).
(In general: Liver microsomes are a subcellular fraction often used to study metabolism.)

How the values of data set [2] were obtained:
Male SD rats weighing 180-300 g were provided by Shanghai Sippr-BK Laboratory Animals Co., Ltd. Male animals were adapted to the environment for more than 3 days and fasted for 12 hours but without water deprivation at the night before the experiment. PA1010 (compound 4-cis), PA1007 (compound 6-cis), TAF and TDF were respectively dissolved in a normal saline to prepare their corresponding solutions. Before the administration, the animal's body weight was checked whether it met the experimental requirements. 12 rats were selected for grouping, 2 rats in each group, and were intragastrically administered with a drug solution at 30 mg/kg. Rats were euthanized with carbon dioxide gas at 0.5, 1, 3, 6, 12 and 24 h, respectively. Blood samples were collected from the heart and stored in a heparin anticoagulation tube. Then the samples were centrifuged at 4° C. and 6,000 rpm for 5 minutes, and the plasma supernatant was stored in ice. The kidney and liver tissues of the rats were collected and rinsed with normal saline pre-cooled at 4° C., and then stored in ice after water was drained. After the experiment, the samples were stored at −80° C. in a refrigerator.
The kidney and liver tissues were disrupted and mixed thoroughly in normal saline 5 times the volume of the kidney and liver tissues to obtain a tissue homogenate sample. 100 μL of the rat plasma or tissue homogenate sample was mixed uniformly with 100 μL of 10% trichloroacetic acid precipitant containing 50 ng/mL of adefovir (internal standard) and the solvent thereof was prepared by methanol and acetonitrile in a volume ratio of 50:50. The mixture was centrifuged at 4° C. and 6000 rpm for 5 minutes, and all supernatant was treated with a SPE microextraction plate (MCX μElution Plate 30 μm, Waters). Finally, the microextraction plate was eluted with a methanol solution containing 5% ammonia, and 75 μL of the obtained eluent was transferred to a 384-well sample plate for analysis with an injection volume of 1 μL.
LC-MS/MS-AJ (Triple Quad 5500, AB SCIEX) was used for sample analysis. The chromatographic conditions were shown as follows: chromatographic column: Acquity UPLC HSS T3 (2.1×50 mm, 1.8 μm); column temperature: 40° C.; flow rate: 0.5 mL/min; mobile phase A: 0.1% formic acid aqueous solution and mobile phase B: an acetonitrile solution. The mass spectrometry conditions corresponding to the internal standard were shown as follows: electrospray ionization (ESI): positive ion mode; ion pair m/z monitored by multiple reaction monitoring (MRM): 288/176 (PMPA), 274/162 (PMEA); capillary voltage: 3.0 kV; temperature: 500° C.; desolvation gas flow: 1000 L/h; scanning time: 0.025 seconds; and collision energy: 25 V.
Bar charts of the concentration of PMPA in plasma, liver and kidney corresponding to time were respectively plotted. The area (AUC0-t) under the tissue concentration-time curve of PMPA was fitted using the log-linear trapezoidal method in a non-compartmental model of WinNonLin 6.2.1 (Pharsight, CA). The ratios of liver to kidney and liver to plasma of PMPA were obtained by calculating the ratio of their corresponding AUC0-t.

Setting [3] is: male, SD, rat, in vivo, po, 30 mg/kg.
The mark [4] stands for this setting: rats, intragastric 30 mg/kg, 0.5-24 h, kidney.
The mark [5] stands for this setting: rats, intragastric 30 mg/kg, 0.5-24 h.
Where [6] appears, read: rats, intragastric 30 mg/kg, 0.5-24 h, plasma.

Where a name gives a salt, the structure may show the parent alone. Read-outs that look alike come from different tables or passages of the source.

Consider `C[C@H](Cn1cnc2c(N)ncnc21)OCP1(=O)OCC[C@@H](c2cccc(Cl)c2F)O1` (mixture of isomers) [Compound 1, (2R)-9-{2-[(4S)-4-(3-chloro-2-fluorophenyl)-2-oxo-1,3,2-dioxaphosphorinan-2-yl]methoxypropyl}adenine], for which the “Average rate of PMPA production in 5 minutes” value (from here on “Average rate”) in data set [1] was found to be 33.8 pmol/min/mg HLM.

Consider `C[C@H](Cn1cnc2c(N)ncnc21)OCP1(=O)OCC[C@@H](c2cc(F)cc(Cl)c2)O1` (mixture of isomers) [Compound 2, (2R)-9-{2-[(4S)-4-(3-chloro-5-fluorophenyl)-2-oxo-1,3,2-dioxaphosphorinan-2-yl]methoxypropyl}adenine], for which, in data set [1], the “Average rate” value was 46.8 pmol/min/mg HLM.

In the case of `C[C@H](Cn1cnc2c(N)ncnc21)OCP1(=O)OCC[C@@H](c2ccc(F)c(Cl)c2)O1` (mixture of isomers) [Compound 3, (2R)-9-{2-[(4S)-4-(3-chloro-4-fluorophenyl)-2-oxo-1,3,2-dioxaphosphorinan-2-yl]methoxypropyl}adenine], the “Average rate” value in data set [1] stood at 22.2 pmol/min/mg HLM.

`C[C@H](Cn1cnc2c(N)ncnc21)OCP1(=O)OCC[C@@H](c2cccc(Cl)c2)O1` (mixture of isomers) [Compound 7, (2R)-9-{2-[(4S)-4-(3-chlorophenyl)-2-oxo-1,3,2-dioxaphosphorinan-2-yl]methoxypropyl}adenine, reference compound]: in data set [1], the “Average rate” value amounted to 27.5 pmol/min/mg HLM.

Turning to `C[C@H](Cn1cnc2c(N)ncnc21)OC[P@@]1(=O)OCC[C@@H](c2cc(Cl)ccc2F)O1` [Compound 4-cis, (2R)-9-{2-[(2R, 4S)-4-(5-chloro-2-fluorophenyl)-2-oxo-1,3,2-dioxaphosphorinan-2-yl]methoxypropyl}adenine], in data set [2] (male, SD, rat, in vivo), the “exposure level of PMPA in the liver, times that released from TAF” value was 1.5 times and the “exposure level of PMPA in the liver, times that released from TDF” value is listed as 2.9 times. Also, in data set [2] (setting [3]), the “Liver-kidney Ratio of PMPA AUC0-t” value turned out to be 1.0 and the “Liver-plasma Ratio of PMPA AUC0-t” value turned out to be 51.4. Also, in data set [2] (rat, in vivo), the “PMPA level in liver tissues compared with TAF and TDF at the corresponding time points” value was “significantly higher”; the “exposure level of PMPA in the kidney compared with TAF and TDF” value was “significantly lower”. In data set [2] (rat, in vivo, po, 30 mg/kg), the “Exposure (AUC0-t) of the active molecule PMPA in kidney” value (shortened to “Exposure (AUC0-t) … in kidney”) is 234298 ng·h/g and the “Exposure (AUC0-t) of the active molecule PMPA in plasma” value (“Exposure (AUC0-t) … in plasma” below) was 4332 ng·h/g.

For the compound `C[C@H](Cn1cnc2c(N)ncnc21)OC[P@@]1(=O)OCC[C@@H](c2cc(F)cc(Cl)c2)O1` [Compound 6-cis, (2R)-9-{2-[(2R, 4S)-4-(3-chloro-5-fluorophenyl)-2-oxo-1,3,2-dioxaphosphorinan-2-yl]methoxypropyl}adenine], the “Average rate” value in data set [1] turned out to be 75.8 pmol/min/mg HLM. In addition, the “exposure level of PMPA in the kidney compared with TAF and TDF” value in data set [2] (rats, intragastric 30 mg/kg) is given as “significantly lower”. Further, the “Exposure (AUC0-t) … in kidney” value in data set [2] (setting [4]) was 65393 ng·h/g. In addition, in data set [2] (setting [5]), the “Exposure (AUC0-t) of the active molecule PMPA in liver” value (from here on “Exposure (AUC0-t) … in liver”) turned out to be 76075 ng·h/g. Besides, the “Exposure (AUC0-t) … in plasma” value in data set [2] (setting [6]) is 1272 ng·h/g.

With `CC(C)OC(=O)[C@H](C)N[P@](=O)(CO[C@H](C)Cn1cnc2c(N)ncnc21)Oc1ccccc1` [TAF, tenofovir alafenamide, reference compound], the “Exposure (AUC0-t) … in kidney” value in data set [2] (setting [4]) turned out to be 297233 ng·h/g. Further, the “Exposure (AUC0-t) … in liver” value in data set [2] (setting [5]) was 148407 ng·h/g. Further, the “Exposure (AUC0-t) … in plasma” value in data set [2] (setting [6]) stood at 4892 ng·h/g.

Consider `CC(C)OC(=O)OCOP(=O)(CO[C@H](C)Cn1cnc2c(N)ncnc21)OCOC(=O)OC(C)C` [TDF, tenofovir disoproxil fumarate, reference compound], for which the “Exposure (AUC0-t) … in kidney” value in data set [2] (setting [4]) worked out at 319562 ng·h/g. For the same compound, in data set [2] (setting [5]), the “Exposure (AUC0-t) … in liver” value is 78050 ng·h/g. In addition, the “Exposure (AUC0-t) … in plasma” value in data set [2] (setting [6]) is 3097 ng·h/g.
